Assay results published in patent US20060281807A1, “Quassinoid compositions for the treatment of cancer and other proliferative diseases” (Tapestry Pharmaceuticals, Inc., priority 2005, published 2006).
In brackets after ≈: the same amount, converted by molar mass. Several values for one entry are separate records, joined by “and”; a condition that tells them apart may be missing. Identical values can stand only once. Like-named read-outs stand apart in the source and are kept apart here.

Experiments:
[1] = tested on: HCT116 (human colorectal carcinoma); assay: Disk diffusion assay, zone of inhibition, HCT116; format: cell-based; details: 1 mg/mL
Method: (§1) A disk diffusion assay was performed to define the differential cell killing ability of 15-O-(3′-hydroxy-3′-isopropyl-4′-methylpentanoyl)bruceolide. Seven cell types were assayed: L1210 (ATCC CCL-219) (murine leukemia), CCRF-CEM (ATCC CCL-119) (human leukemia), Colon 38 (murine colon adenocarcinoma), HCT116 (ATCC CCL-247) (human colorectal carcinoma), H125 (human lung carcinoma). The murine and human granulocyte/macrophage progenitor cell line (CFU-GM), served as controls.
(§2) Colon 38 cells (about 1 gram) were cut into small fragments in 15 mL of Hank's Balanced Salt Solution (HBSS) over a 100-mesh sieve and gently forced through by the scissors with HBSS constantly perfusing the sieve. The resulting material was then drawn into and out of a 5 mL syringe without a needle to further disperse the cell clumps. The cell solution was diluted and plated in 0.3% agarose in DMEM plus 10% heat-inactivated Bovine Calf Serum (BCS). For plating of all of the cell types (except controls), the 60 mm plates were first prepared with a hard agar bottom layer (0.6% agar in RPMI-1640 plus 15% BCS).
(§3) HCT116 and H125 cells were maintained in cell culture, and were removed from culture by a trypsin-collagenase-DNAase cocktail. The plating efficiencies of each cell type was sufficiently high that 30,000 cells in 3 mL produced the desired number of colonies (i.e., over 10,000 per plate) in 60 mm plates. This soft agar top layer (0.3% with the serum and media as above) plus the titrated tumor cells were poured into the plates and allowed to solidify.
(§4) A 15 μl sample of each compound was dropped onto a 6.5 mm disk (Baxter filter disks). The disks were allowed to dry overnight and then placed close to the edge of a petri dish. Depending upon the cell type, the dishes were incubated for 7 to 10 days, and examined by an inverted stereo-microscope (10×) for measurement of the zone of inhibition. The zone of inhibition was measured from the edge of the filter disk to the beginning of normal-sized colony formation. The diameter of the filter disk, 6.5 mm, was arbitrarily taken as a zone of 200 units. Compounds that were selective for killing solid tumors, as compared to leukemia or normal cells (“solid tumor selective”) were defined as those compounds which produced a difference in zones between solid tumor cells and either normal or leukemia cells of at least 250 units. The results of this analysis are set forth in Table 4, which illustrates the relative diameters of the zones of inhibition by various drugs on the growth of the respective cell types at various drug dilutions.

[2] = tested on: CCRF-CEM (human leukemia); assay: Disk diffusion assay, zone of inhibition, CCRF-CEM; format: cell-based; details: 1 mg/mL
Method: as §1, §2, §4

[3] = Maximum tolerated dose in mice; details: intravenous, first stage, one mouse per dose
Method: Formulations containing 15-O-(3′-hydroxy-3′-isopropyl-4′-methylpentanoyl)bruceolide, 15-(3-isopropyl-4-methyl-2-pentenoyl)-bruceolide, and, for comparative purposes, bruceantin, or peninsularinone were prepared by solubilizing each compound in up to 100 mg/mL of ethanol. These solutions were diluted 1:1 with a stabilizer (Cremophor/propylene glycol). The solutions were then diluted in saline (1:10 minimum).
The maximum tolerated dose (MTD) was determined by a two-stage experiment. In the first stage, between 1 and 10 mg/mL of the formulation was prepared as described above. Next, 0.25 mL of the formulation was injected intravenously into one 20 gram mouse (0.75 mg/mouse). If the animal died within 30 days of injection, a series of subsequent 2-fold dilutions were administered to individual mice until an MTD was defined. […] The second stage of the study involved increasing the number of mice per dose to four, and retesting four dilutions that bracket the MTD from the individual mouse study. The four dilutions were the MTD, a dosage twice the MTD, a dosage ½ the MTD, and a dosage ¼ the MTD.

[4] = tested on: HCT-116 cells; assay: Clonogenic assay, HCT-116; format: cell-based, human; details: colonies at 7 days
Method: A clonogenic assay was performed using HCT-116 cells. Specifically, HCT-116 cells were seeded at 200 to 20,000 cells in 60 mm dishes. […] At either 2 hours or 24 hours following drug administration, the drug-containing media was removed, and fresh media without drug was added. In addition, one group of cells was subjected to continuous drug exposure for the entire incubation period. The dishes were incubated for 7 days (at 37° C. and 5% CO2), media was removed, and the colonies were stained with methylene blue. Colonies containing 50 cells or more were counted. The results were normalized to an untreated control. Plating efficiency for the untreated cells was about 90%. Repeat experiments also were carried out to define the cell survival range between 1 (100%) and 10^−3 (0.1%) survival. A survival rate of 10^−1 was chosen as the minimal level that would be required in vivo to achieve therapeutic efficacy against HCT-116 cells in tumor-bearing mice. The clonogenic dose response to 15-O-(3′-hydroxy-3′-isopropyl-4′-methylpentanoyl)bruceolide is illustrated in FIG. 4. The clonogenic dose response to 15-(3-isopropyl-4-methyl-2-pentenoyl)-bruceolide is illustrated in FIG. 5.

[5] = tested on: HCT-116 cells; assay: HCT-116 cytotoxicity, viable cell count by trypan blue; format: cell-based, human; details: for IC90/IC50: HCT-116; for IC50 / IC90: HCT-116, 3 days with compound, viable cells, by interpolation
[6] = tested on: L1210 (murine leukemia); assay: Disk diffusion assay, zone of inhibition, L1210; format: cell-based; details: 1 mg/mL
Method: as §1, §2, §4

[7] = tested on: H125 (human lung carcinoma); assay: Disk diffusion assay, zone of inhibition, H125; format: cell-based; details: 1 mg/mL
Method: as §1, §2, §3, §4

[8] = tested on: murine CFU-GM; assay: Disk diffusion assay, zone of inhibition, murine CFU-GM; format: cell-based; details: 1 mg/mL
Method: as §1
For CFU-GM cells, the femoral marrow of BD2F1 mice was flushed with MEM alpha (2 mL per femur). The cells were passed through an 18 gauge needle twice and the monodispersed suspension was counted. A total of 1.5×10^6 cells were plated in 3 mL of 0.3% agar with the addition of 10% L cell conditioned media, which provided colony stimulating factor, in MEM-alpha plus 10% BCS. For human CFU-GM, the cells were obtained from Poietic Technologies, Inc. (Gaithersburg, Md.) and washed twice with PBS before being titered and added to the agar mixture. The same cell number, culture conditions, and conditioning factors used with respect to the murine CFU-GM cells were used with the human cells, except that the cultures were assessed after 10 days of incubation.
as §4

[9] = tested on: Colon 38 (murine colon adenocarcinoma); assay: Disk diffusion assay, zone of inhibition, Colon 38; zone differentials, potency and product; format: cell-based; set-up: key to C38ΔL1210 / C38ΔCFU: difference of zone of inhibition values, in zone units; details: for zone of inhibition, Colon 38: 1 mg/mL; for Sum: C38ΔL1210 plus C38ΔCFU; for C38ΔL1210: Colon38 vs L1210 leukemia; for Product: potency multiplied by zone differentials
Method: as §1, §2, §4
The degree of differential sensitivity of several inventive compounds was compared with respect to the Colon38 cell line, the L1210 cell line, and the control CFU-GM cell lines. The degree of differential sensitivity was estimated by calculating the difference between the zone of inhibition values, as determined in Example 6, for the solid tumor compared to either the leukemia (C38ΔL1210) or normal cell (C38ΔCFU).
The potency of each of several inventive compounds was determined by identifying the dilution required to yield an average zone of inhibition of 500 units for the Colon38 cell type. Then the potency and the zone differentials were multiplied to define a “product” (see Table 5), which can be used to rank the compounds tested for their potential for further development; the greater the product value the greater the probability of useful chemotherapeutic utility.

[10] = no dilution, 15 μl on disk, 6.5 mm = 200 units
[11] = difference between zone of inhibition values

SMILES	zone of inhibition, H-116 ([1]; dilution 1/10)	zone of inhibition, H-116 ([1]; dilution 1/100)	zone of inhibition, H-116 ([1]; dilution 1/1000)	zone of inhibition, H-116 [1, 10]	zone of inhibition, CEM ([2]; dilution 1/10)	zone of inhibition, CEM ([2]; dilution 1/100)	zone of inhibition, CEM ([2]; dilution 1/1000)	zone of inhibition, CEM [2, 10]	Concentration Required for 10^−1 Survival Fraction ([4]; HCT-116, 2 Hour Exposure)	Concentration Required for 10^−1 Survival Fraction ([4]; HCT-116, 24 Hour Exposure)	Concentration Required for 10^−1 Survival Fraction ([4]; HCT-116, Continuous Exposure)	IC90/IC50 [5]	zone of inhibition, L1210 ([6]; dilution 1/100)	zone of inhibition, L1210 ([6]; dilution 1/1000)	zone of inhibition, L1210 [6, 10]	zone of inhibition, H-125 M ([7]; dilution 1/10)	zone of inhibition, H-125 M ([7]; dilution 1/100)	zone of inhibition, H-125 M ([7]; dilution 1/1000)	zone of inhibition, H-125 M [7, 10]	zone of inhibition, murine CFU-GM ([8]; dilution 1/10)	further results
CC[C@@](O)(CC(=O)O[C@@H]1C(=O)O[C@@H]2C[C@@H]3C(C)=CC(=O)[C@H](O)[C@]3(C)[C@H]3[C@]4(O)OC[C@]32[C@@H]1[C@@H](C)[C@H]4O)C(C)C [Peninsularinone, peninsularinone]	>1000 units	950 units	450 units	>1000 units	>1000 units	800 units	500 units	>1000 units	>10 μg/mL	1 × 10^−2 μg/mL	1 × 10^−3 μg/mL	13	700 units	300 units and 200 units	>1000 units	>1000 units	1000 units	400 units	>1000 units	>1000 units	maximum tolerated dose, Dose - 1 Mouse [3]: 0.01 mg/mouse and 0.45 mg/kg; IC50 [5]: 0.0012 µg/mL (≈ 0.00224 µM); IC90 [5]: 0.015 µg/mL (≈ 0.028 µM); zone of inhibition, L1210 ([6]; dilution 1/10): >1000 units; zone of inhibition, L1210 ([6]; dilution 1/4000): 50 units; zone of inhibition, L1210 ([6]; dilution 1/10000): 100 units; zone of inhibition, murine CFU-GM ([8]; dilution 1/100): 450 units; zone of inhibition, murine CFU-GM ([8]; dilution 1/4000): 0 units; zone of inhibition, murine CFU-GM ([8]; dilution 1/10000): 0 units; zone of inhibition, murine CFU-GM [8, 10]: >1000 units; zone of inhibition, Colon 38 ([9]; dilution 1/10): >1000 units; zone of inhibition, Colon 38 ([9]; dilution 1/100): >1000 units; zone of inhibition, Colon 38 ([9]; dilution 1/1000): 800 units and 550 units; zone of inhibition, Colon 38 ([9]; dilution 1/4000): 250 units; zone of inhibition, Colon 38 ([9]; dilution 1/10000): 200 units; zone of inhibition, Colon 38 [9, 10]: >1000 units; Sum [9]: 1100 and 550; C38ΔL1210 [9, 11]: 450 and 250; Product [9]: 6600 and 3575
CC1=CC(=O)[C@@H](O)[C@]2(C)[C@H]3[C@@]4(O)OC[C@]35[C@H]([C@@H](C)[C@H]4O)[C@@H](O)C(=O)O[C@@H]5C[C@@H]12 [Glaucarubolone, glaucarubolone]	600 units	0 units	0 units	>1000 units	600 units	0 units	0 units	900 units	>10 μg/mL	1 × 10^0 μg/mL	2 × 10^−2 μg/mL	58	0 units	0 units	400 units	700 units	0 units	0 units	>1000 units	0 units	IC50 ([5]; Homo sapiens, 72 h, read-out: IC50): 0.04 µg/mL (≈ 0.101 µM); IC90 ([5]; Homo sapiens, 72 h, read-out: IC90): 2.3 µg/mL (≈ 5.83 µM); zone of inhibition, murine CFU-GM ([8]; dilution 1/40): 0 units; zone of inhibition, murine CFU-GM ([8]; dilution 1/100): 0 units; zone of inhibition, murine CFU-GM ([8]; dilution 1/1000): 0 units; zone of inhibition, murine CFU-GM [8, 10]: 50 units; zone of inhibition, Colon 38 ([9]; dilution 1/10): >1000 units and 600 units; zone of inhibition, Colon 38 ([9]; dilution 1/40): 400 units; zone of inhibition, Colon 38 ([9]; dilution 1/100): 400 units; zone of inhibition, Colon 38 ([9]; dilution 1/1000): 0 units; zone of inhibition, Colon 38 [9, 10]: >1000 units; Sum [9]: 1150 and 800; C38ΔL1210 [9, 11]: 550 and 400; C38ΔCFU ([9]; difference between zone of inhibition values, Colon38 vs normal cell CFU-GM): 600 and 400; Product [9]: 4600 and 3600
